Data reported in patent publication US9732067B2, “Compounds and methods for activating the apoptotic arm of the unfolded protein response” (University of Kansas, priority 2012, dated 2017).
pEC50, pIC50: −log10 of the molar value. Several values for one entry are separate records, joined by “and”; a condition that tells them apart may be missing. Equal values may be shown once. Read-outs that look alike come from different tables or passages of the source.

Legend:
[1] = tested on: HN6; assay: Proliferation, HN6; assay type: cell-based; conditions: HN-6, 24 hours, average of three experiments
Procedure: (§1) To determine whether ML291 could reduce the proliferation of malignant cells, a panel of OSCC (UMSCC23, A253, HN6, HN12, HN30, H460/T800) and ovarian cancer (RMG-1, TOV112D, A2780 and SKOV3) cell lines, were treated with increasing doses (0.15-20 μM) of ML291 for 24 hours (FIGS. 3A and 3B).

[2] = Hepatic microsome stability, human; assay type: in vitro ADME
Excerpt: The microsomal stability assay is commonly used to rank compounds according to their metabolic stability. This assay addresses the pharmacologic question of how long the parent compound will remain circulating in plasma within the body.

[3] = tested on: panel of OSCC and ovarian cancer cell lines; assay: Proliferation, panel of OSCC and ovarian cancer cell lines; assay type: cell-based; conditions: 24 hours, 0.15-20 μM; read-out: IC50 values in eight of the ten cell lines
Procedure: as §1

[4] = Toxicity towards Fa2N-4 immortalized human hepatocytes; assay type: cell-based; conditions: read-out: Toxicity Towards Fa2N-4 Immortalized Human Hepatocytes LC50
[5] = Aqueous solubility in pION's buffer; assay type: physicochemical
Excerpt: Solubility was highest at the physiological of pH 7.4.

[6] = Stability in PBS at room temperature; assay type: physicochemical; conditions: 48 hours, 23° C.
Procedure: Stability was measured under two distinct conditions with ML291: at room temperature (23° C.) in PBS (no antioxidants or other protectants and DMSO concentration below 0.1%) and with 50% acetonitrile added to account for challenges with solubility of the compound in PBS alone. Stability was determined as the loss of compound with time over a 48 hour period with a minimum of 6 time points.

[7] = tested on: IRE1/XBP1 (adaptive) UPR sub-pathway; assay: UPR XBP1 assay (CHO-XBP1-luciferase reporter cell line); assay type: cell-based
Procedure: A high-throughput screen of the NIH Molecular Libraries Small Molecule Repository (MLSMR) of >350,000 compounds was carried out using complementary cell-based reporter assays using stably transfected CHO-K1 cells that specifically identify activators of the PERK/eIF2α/CHOP (apoptotic), or the IRE1/XBP1 (adaptive) UPR sub-pathways.
The liquid samples were first confirmed at a single-point concentration of 10 μM in the […]. Of the liquid samples, 674 compounds were confirmed to have at least 32% activity at a 10 μM assay concentration. The confirmed compounds were further tested in dose response in the UPR-CHOP primary assay to obtain EC50 values. In addition, confirmed compounds were also dosed out in the CHO-XBP1-luciferase reporter cell line to identify compounds that were selective for the CHOP apoptotic over the adaptive XBP1 pathway.
The high throughput screening effort and subsequent validation produced two chemotypes, which were further explored by SAR analysis for potency, selectivity, the absence of reactive functionality, synthetic accessibility, physiochemical properties, and hit rate in unrelated PUBCHEM assays. SAR testing of re-constituted powders encompassed dose response testing of compounds in two assays: UPR-CHOP and UPR-XBP1 assays.

[8] = tested on: PERK-eIF2α-CHOP (apoptotic) arm of the Unfolded Protein Response pathway; assay: UPR-CHOP primary assay (CHO-CHOP luciferase reporter); assay type: cell-based
Procedure: The purpose of this assay was to detect activators of the PERK-eIF2α-CHOP (apoptotic) arm of the Unfolded Protein Response pathway.
Cells were passaged twice a week. […] Once the cells had reached confluency, old medium was aspirated and the flasks were washed with 20 mL DPBS per T225 flask. Cells were left in DPBS for about 30 seconds. Subsequently, 6.5 mL 0.05% trypsin solution was added into the flask and the flask was rocked gently so that the solution covered the surface. The cells were allowed to detach by incubating at room temperature for about 4 minutes. The flask was washed with […] fresh growth media and the cell suspension was collected in a 50 mL sterile conical tube. The collected cells were centrifuged at 900 rpm for 5 minutes and re-suspended in 1 mL fresh growth media. An additional 19 mL of growth media was added and the tube was mixed gently. The cell suspension was filtered with a cell strainer and the cells were counted.
As above, cells were grown to confluency, washed, and detached with 5 mL trypsin solution for 4 minutes at room temperature. The flask was washed with 25 mL fresh growth media and the cell suspension was collected in a 50 mL sterile conical tube. The cells were centrifuged at 500 rpm for 10 minutes and re-suspended carefully in 1 mL fresh assay medium. An additional 19 mL of assay media was added the cells were mixed gently. The cell suspension was filtered with a cell strainer and the number of cells was counted. Cell density was adjusted to 1.0×10^5 cells/mL in medium.
On day 1, cell suspensions were prepared and 500 cells in 5 μL of assay media were plated in the wells of columns 1-48 of a 1536-well assay plate. The plates were centrifuged at 500 rpm for 1 minute and subsequently incubated at 37° C., 100% relative humidity, 5% CO2 for 16-18 hours.
[…] […] The plates were centrifuged at 1000 rpm for 1 minute and subsequently incubated at 37° C., 100% relative humidity, 5% CO2 for 6 hours.
Following the 6-hour incubation the plate was incubated for 10 minutes at room temperature and 3 μL of STEADY-GLO was added to each well. The plates were centrifuged at 2000 rpm for 2 minutes and subsequently incubated at room temperature for 10 minutes. Luminescence was measured with a luminometer.
The MLPCN library of approximately 330,000 compounds was tested in the UPR-CHOP primary screen utilizing a luciferase-based reporter expressed in a CHO cell line to identify activators of the CHOP apoptotic pathway. […]

[9] = tested on: SKOV3; assay: Proliferation, SKOV3; assay type: cell-based; conditions: Homo sapiens, SK-OV-3, 24 hours
Procedure: as §1

[10] = tested on: RMG-1 (ovarian); assay: Proliferation, RMG-1; assay type: cell-based; conditions: 24 hours
Procedure: as §1

[11] = Plasma stability, human; assay type: in vitro ADME
Excerpt: Plasma stability is a measure of the stability of small molecules and peptides in plasma and is an important parameter, which strongly can influence the in vivo efficacy of a test compound. Drug candidates are exposed in plasma to enzymatic processes (proteinases, esterases), and they can undergo intramolecular rearrangement or bind irreversibly (covalently) to proteins. ML291 appeared to be moderately stable in human plasma (˜84% remaining), but less so in mouse plasma (˜52% remaining).

[12] = tested on: TOV112D (ovarian); assay: Proliferation, TOV112D; assay type: cell-based; conditions: Homo sapiens, 24 hours
Procedure: as §1

O=C(Nc1ccc(S(=O)(=O)N2CCC(Cl)CC2)cc1)c1ccc([N+](=O)[O-])o1 [ML291, N-(4-((4-chloropiperidin-1-yl)sulfonyl)phenyl)-5-nitrofuran-2-carboxamide]
pIC50 [1]: < 4.70
Hepatic Microsome Stability (% Remaining after 1 hour @ 37° C.) ([2]; Human): 0.49%
metabolism in human liver homogenates ([2]; within 1 hour): almost completely metabolized
pIC50 [3]: 4.72 to 5.80
CC50 [4]: 11400 nM
solubility over its EC50 ([5]; EC50 762 nM): 11-13 fold
solubility ([5]; aqueous buffer (pION's buffer), aqueous buffer, pH range of 5.2-7.4, read-out: solubility in aqueous buffers): 8.7 µM to 9.7 µM and 3.6 µg/mL to 4 µg/mL
Aqueous Solubility in pION's buffer ([5]; pH 5.0): 3.6 μg/mL and 8.7 μM
Aqueous Solubility in pION's buffer ([5]; pH 6.2): 3.8 μg/mL and 9.2 μM
Aqueous Solubility in pION's buffer ([5]; pH 7.4): 4.0 μg/mL and 9.7 μM
percent remaining compound in PBS with 50% acetonitrile [6]: 100%
percent remaining compound in PBS ([6]; no additives): 11.44%
pEC50 ([7]; Table 1, mean of replicates, AID602416, read-out: UPR XBP1 Assay Potency EC50): < 4.10
pEC50 ([7]; Table 9, average of four runs, F12 HAMs, 10% hi-FBS, read-out: EC50 UPR XBP1 Assay): < 4.10
pEC50 ([7]; read-out: XBP1 EC50): < 4.10
selectivity (XBP1 over CHOP) [8]: > 108.1 fold
pEC50 ([8]; CHO-K1, text, read-out: EC50 in the CHO-K1 cell reporter assays (CHOP)): 6.12
pEC50 ([8]; Cricetulus griseus, Table 1, mean of replicates, AID602434, read-out: UPR CHOP Assay Potency EC50): 6.13
pEC50 ([8]; Cricetulus griseus, read-out: CHOP EC50): 6.13
Selectivity (XBP1/CHOP) x-fold ([8]; Table 1): >108.1 x-fold
pEC50 ([8]; Table 9, average of four runs, F12 HAMs, 10% hi-FBS, read-out: EC50 UPR CHOP Assay): 6.11
pEC50 ([8]; read-out: EC50 in the CHO-K1 cell reporter assays (CHOP)): 6.12
pIC50 [9]: 5.80
pIC50 [10]: < 4.70
remaining in human plasma [11]: ~84%
Plasma Stability (% Remaining at 3 hours @ 37° C.) ([11]; Human): 85.58%
pIC50 [12]: 5.18
